Patent EP3409671B1, “ISOTHIAZOLE DERIVATIVES AS GPR120 AGONISTS FOR THE TREATMENT OF TYPE II DIABETES” (Janssen Pharmaceutica NV, priority 2014, dated 2015)

What was measured:
C57b1/6J Mice = experiment: GPR120 C57bl6 Mouse IPGTT; type: in vivo; parameters: C57 IPGTT 10mg/kg: unit not given here; details: for C57 IPGTT 3mg/kg: 3mg/kg dosed 30 minutes prior to glucose IP 1.5g/kg; for C57 IPGTT 10mg/kg: 10mg/kg dosed 30 minutes prior to glucose IP 1.5g/kg
Protocol: Male, C57b1/6J Mice were ordered in at 8 weeks of age from Jackson Labs. Individual mice weighed anywhere in the range of 25-30 grams on study day. The mice were fasted, with removal of food occurring at 7am on the morning of the study. Animals were moved into the room at 10:00am, to give them time to acclimate. Glucose (insulin syringes) was drawn up either the night before or the morning of the study. Glucose was dosed (IP) at 1.5g/kg at 7.5ml/kg (20% glucose straight TEKNOVA, 250ml sterile bottle w/ catalogue number G0525). Test compounds were kept spinning and were only drawn into the syringes prior to study commencement. Animals were bled via tail snip to determine basal glucose levels prior to dosing of treatments. An Ascensia BREEZE Blood Glucose Monitoring System by Bayer (using unique 10-test disks) was used for determining glucose levels. The bleeds started at approximately 12:45pm and dosing started, at 1-minute intervals, immediately after. All groups were dosed 30 minutes prior to glucose administration at a dose volume of 10ml/kg (the dose volume was calculated separately for each individual animal). Thirty minutes after the first dose animals were bled again for a second baseline, or T=0, and immediately dosed with glucose via an i.p. injection. The exact dose volume for glucose was also calculated separately for each individual animal. Glucose measurements were taken at -30min prior to compound dose, at t=0 (immediately prior to glucose dose), and at 15, 30, 45, 60, 90min post glucose dose.
Glucose values were entered into an Excel sheet and graphed in GraphPad Prism. The following were calculated from Prism: Change from -30 to 0 BSLN Glucose, Raw Glucose AUC -30 to 90min, Delta Glucose AUC -30 to 90min, Raw Glucose AUC 0 to 90min, Delta Glucose AUC 0 to 90min.
Representative compounds of the present disclosure were tested according to the procedures as described in Biological Example 4, above with results as listed in Table 3, below. […] Where a compound was tested more than once, each result is listed individually. Table 3: GPR120 C57bl6 Mouse IPGTT OGTT Results

Human GPR120 short form [1] = target: T1, Human GPR120 short form (Homo sapiens, UniProt Q5NUL3); experiment: Human GPR120 Calcium Flux Assay, Procedure Calcium A; type: cell-based; details: HEK-293 cells expressing Human GPR120 short form, FLIPR, 2500 cells / well; read-out: GPR120 Ca^2+ Assay A EC50
T1 construct: expressed in transfected cells
T1 sequence (Q5NUL3 1-361): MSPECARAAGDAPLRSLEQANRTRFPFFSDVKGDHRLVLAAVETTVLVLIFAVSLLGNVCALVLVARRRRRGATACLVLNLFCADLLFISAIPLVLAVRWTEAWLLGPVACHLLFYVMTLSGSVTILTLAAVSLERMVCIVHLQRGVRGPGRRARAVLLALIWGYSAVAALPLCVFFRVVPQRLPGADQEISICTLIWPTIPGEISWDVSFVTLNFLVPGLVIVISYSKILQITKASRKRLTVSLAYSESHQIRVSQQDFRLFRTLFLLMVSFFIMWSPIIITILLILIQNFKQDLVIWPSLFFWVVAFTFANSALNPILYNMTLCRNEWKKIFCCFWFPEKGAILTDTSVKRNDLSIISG
Description: (§1) This in vitro assay serves to assess test compound agonist activity against the short splice variant (SVS with Accession number NM_001195755.1 confirmed by sequencing data) of the GPR120 receptor. The Human Short splice variant #2 (NM_001195755.1) is missing an in-frame coding exon compared to variant 1 (the Human Long splice variant NM_181745.3), resulting in a shorter isoform (GPR120-S) lacking a 16 aa protein segment compared to isoform GPR120-L. The assay platform utilizes HEK-293 cells stably transfected to express the Human GPR120 short form. These cells are first loaded with the Ca^+2 sensitive dye, Fluo-4 NW. Upon stimulation, intracellular released Ca^+2 can bind to the dye and alter its fluorescence intensity. This increase in fluorescence signal, and thus the flux in intracellular [Ca^2+], is detected and quantitated by fluorescence imaging using a FLIPR reader. The effect of the agonist is measured as a function of concentration and used to calculate an EC50 based upon a response curve.
In this procedure 2500 cells / well were employed.
(§2) A Human GPR120 clone (Genbank accession number NM _001195755.1) was placed into the pcDNA3.1 mammalian expression vector carrying the neomycin resistance gene. A stable mammalian cell was generated by placing the above clone into a HEK293 background. Clonal cells responding to long chain fatty acids had expression levels of GPR120 confirmed by RT-qPCR. Human HEK-GPR120 cells were cultured in Dulbecco's Modified Eagle's Medium (DMEM)/F12 medium supplemented with 10% fetal bovine serum (FBS), 1% L-Glutamine and 1% penicillin/streptomycin and 0.5 mg/ml G-418. Cells were split 2 times a week to keep the cells in the log-phase growth.
(§3) In preparation for the assay, HEK cells stably transfected with Human GPR120 (2.5K cells per well in 25uL growth medium) were seeded into 384-well plates and then incubated overnight (37°C, 5% CO2). The next day, the media was changed to 20 µL assay buffer and the cell starved for 1h at 37°C. […]
(§4) The assay was performed on a FLIPR plate reader using the following parameters. Baseline was read for 10 seconds at 1 sec intervals. The program was set to transfer 10µL of ligand from compound plate to cell plate after baseline reading. […] After compound addition, each well was read for 300 sec, with measurements collected at 1 sec intervals.
(§5) The kinetic data from the FLIPR was based upon a 5 minute window for data collection. The fluorescence of each sample well was used for individual calculations of a normalized RFU value, which was defined as maximum response minus the minimum response. The normalized fluorescence reading (RFU) was calculated as follows: RFU = Fmax−Fmin [formula] […]

Human GPR120 short form [2] = target: T1, Human GPR120 short form; experiment: Human GPR120 Calcium Flux Assay, Procedure Calcium B; type: cell-based; details: HEK-293 cells expressing Human GPR120 short form, FLIPR, 4200 cells/well; read-out: GPR120 Ca^2+ Assay B EC50
Description: as §1
In this procedure 4200 cells/well were employed.
as §2, §3, §4, §5

Structure (SMILES)	C57 IPGTT 3mg/kg (C57b1/6J Mice)	C57 IPGTT 10mg/kg (C57b1/6J Mice)	other results
CCc1ccc(-c2nsc(C(F)(F)F)c2COc2c(F)cc(CCC(=O)O)cc2F)cc1 [Cpd 70, 3-(4-[[3-(4-ethylphenyl)-5-(trifluoromethyl)-1,2-thiazol-4-yl]methoxy]-3,5-difluorophenyl)propanoic acid]	–	–	C57 IPGTT 30mg/kg (C57b1/6J Mice; 30mg/kg dosed 30 minutes prior to glucose IP 1.5g/kg): -88
O=C(O)CCc1cc(F)c(OCc2c(C3CCCC3)nsc2C(F)(F)F)c(F)c1 [Cpd 71, 3-(4-[[3-cyclopentyl-5-(trifluoromethyl)-1,2-thiazol-4-yl]methoxy]-3,5-difluorophenyl)propanoic acid]	-14	–	–
O=C(O)CCc1cc(F)c(OCc2c(-c3ccc(Cl)cc3)nsc2C(F)(F)F)c(F)c1 [Cpd 79, 3-(4-[[3-(4-chlorophenyl)-5-(trifluoromethyl)-1,2-thiazol-4-yl]methoxy]-3,5-difluorophenyl)propanoic acid]	–	-60	–
CCc1ccc(-c2snc(Cl)c2COc2ccc(CCC(=O)O)c(C)c2C)cc1 [Cpd 85, 3-(4-[[3-chloro-5-(4-ethylphenyl)-1,2-thiazol-4-yl]methoxy]-2,3-dimethylphenyl)propanoic acid]	-29	-48	–
OCCCc1cc(F)c(OCc2c(-c3ccc(Cl)cc3)nsc2C(F)(F)F)c(F)c1 [Cpd 100, 3-(4-[[3-(4-chlorophenyl)-5-(trifluoromethyl)-1,2-thiazol-4-yl]methoxy]-3,5-difluorophenyl)propan-1-ol]	–	-42	–
O=C(O)CCc1ccc(OCc2c(-c3ccc(Cl)cc3)nsc2C(F)(F)F)c(F)c1F [Cpd 106, 3-(4-[[3-(4-chlorophenyl)-5-(trifluoromethyl)-1,2-thiazol-4-yl]methoxy]-2,3-difluorophenyl)propanoic acid]	–	-34	–
O=C(O)CCc1cc(F)c(OCc2c(-c3ccc(F)c(F)c3)nsc2C(F)(F)F)c(F)c1 [Cpd 129, 3-(4-((3-(3,4-difluorophenyl)-5-(trifluoromethyl)isothiazol-4-yl)methoxy)-3,5-difluorophenyl)propanoic acid]	–	–	EC50 (Human GPR120 short form [1]): 125 nM
Cc1c(CCC(=O)O)ccc(OCc2c(-c3ccc(Cl)cc3)nsc2C(F)(F)F)c1C [Cpd 142, 3-(4-((3-(4-chlorophenyl)-5-(trifluoromethyl)isothiazol-4-yl)methoxy)-2,3-dimethylphenyl)propanoic acid]	-34	-61	–
Cc1ccccc1-c1snc(Cl)c1COc1cc(C(F)(F)F)c(CCC(=O)O)cc1F [Cpd 246, 3-(4-((3-chloro-5-(o-tolyl)isothiazol4-yl)methoxy)-5-fluoro-2-(trifluoromethyl)phenyl)propanoic acid]	–	–	EC50 (Human GPR120 short form [1]): 2350 nM
COC(=O)CCc1cc(F)c(OCc2c(-c3ccc(Cl)cc3F)nsc2C(F)(F)F)c(F)c1 [Cpd 263, Methyl 3-(4-{[3-(4-chloro-2-fluorophenyl)-5-(trifluoromethyl)isothiazol-4-yl]methoxy}-3,5-difluorophenyl)propanoate]	–	–	EC50 (Human GPR120 short form [2]): > 5000 nM
